These results are taken from patent US20180312473A1, “PHENAZINE DERIVATIVES AS ANTIMICROBIAL AGENTS” (priority 2015, published 2018).

Data set [1] deals with MRSA-2 (methicillin-resistant Staphylococcus aureus clinical isolate). In words: MIC assay (broth microdilution, CLSI). The settings on record: Staphylococcus aureus, MRSA, read-out: MIC, MRSA-2. Type of data set: cell-based.
The subject of data set [2] is MRSA-1 (methicillin-resistant Staphylococcus aureus clinical isolate). The experiment in a line: MIC assay (broth microdilution, CLSI). The class given is cell-based. Conditions: Staphylococcus aureus, MRSA, read-out: MIC, MRSA-1.
Data set [3] concerns Enterococcus faecium (ATCC 700221), VRE. In words: MIC assay (broth microdilution, CLSI). Type of data set: cell-based. On the technique in general: Broth dilution looks for growth in wells or tubes with falling amounts of substance.
The nature of data set [4]: in vitro. Type of data set: cell-based. The settings on record: human.
For data set [5], the system named is HeLa cells. The experiment in a line: in vitro. The class given is cell-based.
Data set [6] deals with human red blood cells. The experiment in a line: Hemolysis assay with red blood cells. The settings on record: human, 1 h, 200 μM, pH 7.2. The method, boiled down:
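Hemolysis expressed as percent of the Triton X signal with DMSO as zero, using OD405 of supernatant. Compounds from DMSO stocks were incubated with triple-washed human erythrocytes for 1 hour at 37° C. before centrifugation; three independent experiments.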

Data set [7] relates to MRSE (S. epidermidis ATCC 35984) planktonic cells and biofilms. In words: Calgary Biofilm Device (CBD) assay, MBC/MBEC. The class given is cell-based, Staphylococcus epidermidis. The settings on record: for MBC: Staphylococcus epidermidis.
Data set [8] relates to VRE (E. faecium ATCC 700221) planktonic cells and biofilms. The experiment in a line: Calgary Biofilm Device (CBD) assay, MBC/MBEC. The class given is cell-based, Enterococcus faecium. The settings on record: for MBC: Enterococcus.
Data set [9] has as its system A. baumannii 19606. In words: MIC assay (broth microdilution, CLSI). Conditions: Acinetobacter baumannii, 19606; read-out: A. baumannii 19606 MIC. The class given is cell-based, Acinetobacter baumannii.
The nature of data set [10]: Aqueous solubility under MIC assay conditions. The class given is physicochemical. The settings on record: MIC assay media, 37 °C, aqueous buffer; read-out: [aq. soluble].
Data set [11] can be described thus: Spectrophotometric determination of dissociation constants (pKa). The settings on record: UV-vis at varying pH, 1:1 water:methanol buffers. The class given is physicochemical. The method, then:
Dissociation constants (pKa) for select analogues were determined by implementing UV-vis spectroscopy at varying pH values. Buffers were prepared using potassium phosphate monobasic (KH2PO4) and sodium phosphate dibasic (Na2HPO4) in a 1:1 solution of water:methanol to achieve a pH range of 3.78 to 10.94. Compounds were added from 10 mM stock solutions in dimethyl sulfoxide (12.5 μL) to 987.5 μL of each buffer to yield a final compound concentration of 125 μM. Full spectral scans were performed for each evaluated analogue at pH 3.78 and pH 10.94 from 300 to 800 nm to determine λmax values for the protonated phenol (HA; e.g., HP 2 below) and the deprotonated phenolate species (A^−; e.g., conjugate base of HP 2 below). The change in absorption at each determined λmax in relation to pH was then monitored in each buffer and then plotted as absorbance versus pH for each species. The pKa was first estimated by determining the pH of the point of intersection of the two linear curves as shown. The visual estimation was confirmed by plotting pH versus log [A^−/HA]. The resulting plot yielded a linear regression line with a Y-intercept corresponding to a calculated pKa value.

The test system of data set [12] is methicillin-resistant S. aureus (MRSA) strains. The experiment in a line: MIC assay, values summarised over MRSA strains. The class given is cell-based, Staphylococcus aureus.
Data set [13] relates to S. aureus clinical isolate SA 138. The experiment in a line: MIC assay (broth microdilution, CLSI). The settings on record: Staphylococcus aureus, read-out: MIC, SA 138.
The mark [14] stands for this setting: Table 2B, a midpoint of 2-fold range, * partial growth inhibition at highest concentration.
[15] abbreviates: Table 7, a midpoint of 2-fold range, b lowest concentration tested.
The mark [16] stands for this setting: Table 2B, b lowest concentration tested.
The mark [17] stands for this setting: Table 7, b lowest concentration tested, read-out: MIC, VRE 700221.
Where [18] appears, read: Table 8, read-out: MRSE 35984 MBC.

In brackets after ≈: the same amount, converted by molar mass. Several values for one entry are separate records, joined by “and”; a condition that tells them apart may be missing. Equal values may be shown once. Read-outs that look alike come from different tables or passages of the source. Marks after values point to notes of the source that are not given here.

The MIC is the lowest concentration that inhibits growth of the organism. What is called IC50 is the concentration at which inhibition is half-maximal. High values mean weaker potency, low ones greater potency. As usually defined, the pKa is the pH at which an ionisable group is half protonated. A high value points to a weaker acid or stronger base. Regarding `Oc1ccc(I)c2nc3cc(Cl)c(Cl)cc3nc12` [Compound 12, 7,8-Dichloro-4-iodo-1-hydroxyphenazine], the minimum inhibitory concentration (MIC) in data set [1] (Table 2A) came to 0.39 µM (≈ 0.152 µg/mL); in [1] (setting [14]), 0.39 µM (≈ 0.152 µg/mL); in [1] (setting [15]), 0.39 µM (≈ 0.152 µg/mL); in data set [2] (setting [16]), 0.2 µM (≈ 0.0782 µg/mL); in data set [2] (Table 11), 0.3 µM (≈ 0.117 µg/mL); in data set [3] (Enterococcus faecium, read-out: MIC, Enterococcus faecium (ATCC 700221), Table 2B, b lowest concentration tested), 3.13 µM. Besides, the MIC is 3.13 µM in [3] (setting [17]); 3.13 to 6.25 µM in data set [3] (read-out: MIC, VRE 700221, Table 7, b lowest concentration tested); more than 100 µM in [9]; 0.15 to 0.59 µM (≈ 0.0586 to 0.231 µg/mL) in [12] (Staphylococcus aureus, MRSA, range over the MRSA strains/isolates tested, read-out: MIC against MRSA strains); 0.59 µM (≈ 0.231 µg/mL) in [13]. The compound further came in with a half-maximal inhibitory concentration (IC50) at 24 h in [4] of more than 100 µM. Further, the IC50 in [5] (human, 24 h) was more than 100 µM. Besides, the “% Hemolysis (200 μM)” value in [6] is reported as 1.4%. Moreover, the “% Hemolysis at 200 μM” value in data set [6] was 1.4%. Also, the MBC is 9.38 µM (≈ 3.67 µg/mL) in data set [7] (Table 5, read-out: MRSE MBC); 9.38 µM (≈ 3.67 µg/mL) in [7] (setting [18]); 3.13 µM (≈ 1.22 µg/mL) in [8] (read-out: VRE 700221 MBC). Also, the “MRSE MBEC” value in data set [7] (Table 5) turned out to be 75 µM. Besides, the solubility at 16 h in data set [10] was 200 µM (≈ 78.2 µg/mL). For the same compound, in data set [11], the pKa is on record as 7.70.

Turning to `Oc1c(Br)cc(I)c2nc3cc(Cl)c(Cl)cc3nc12` [Compound 14, 2-bromo-7,8-dichloro-4-iodo-1-hydroxyphenazine], the MIC in data set [1] (setting [14]) was 3.13 µM (≈ 1.47 µg/mL); in data set [1] (setting [15]), 3.13 µM (≈ 1.47 µg/mL); in data set [2] (setting [16]), 0.1 µM (≈ 0.047 µg/mL); in [2] (Table 11), 0.1 µM (≈ 0.047 µg/mL); in data set [3] (Enterococcus faecium, Table 2A, read-out: MIC, Enterococcus faecium (ATCC 700221)), less than 0.1 µM; in data set [3] (Enterococcus faecium, Table 2B, b lowest concentration tested, read-out: MIC, Enterococcus faecium (ATCC 700221)) it was 0.1 µM. In addition, the MIC is 0.1 µM in [3] (setting [17]); 0.05 µg/mL in [3] (read-out: MIC, VRE); more than 100 µM in [9]; 0.59 µM (≈ 0.277 µg/mL) in [13]. In addition, the “MIC, VRE 700221” value in data set [3] (Table 7, b lowest concentration tested) was 0.10^b μM. This compound gave an IC50 at 24 h in data set [4] of more than 50 µM. Moreover, the “HeLa cytotoxicity at 50 μM” value is “no cytotoxicity was observed” in [5] and “No HeLa cell death” in data set [5] (human, 24 h, 50 μM). In data set [5] (human, 24 h), this compound displayed an IC50 of more than 50 µM. For the same compound, the “HeLa cell death at 100 μM” value in data set [5] (human, 24 h, 100 μM) is listed as approximately 70%. Moreover, the “% Hemolysis (200 μM)” value in [6] worked out at 2.7%. Further, the “% Hemolysis at 200 μM” value in [6] worked out at 2.7%. The MBC was 1.56 µM (≈ 0.733 µg/mL) in data set [7] (Table 5, read-out: MRSE MBC); 1.56 µM (≈ 0.733 µg/mL) in data set [7] (setting [18]); 0.2 µM (≈ 0.094 µg/mL) in data set [8] (Table 5, c lowest concentration tested, read-out: VRE MBC); 0.2 µM (≈ 0.094 µg/mL) in data set [8] (Table 8, c lowest concentration tested, read-out: VRE 700221 MBC). In addition, in data set [7] (Table 5, listed as 214), the “MRSE MBEC” value is 1.56 μM and 1.56/1.56 μM. In [8] (Table 5, c lowest concentration tested, listed as 214), the “VRE MBEC” value was 0.20 μM and 0.20^c/0.20^c μM. Further, the solubility at 16 h in data set [10] is 200 µM (≈ 94 µg/mL). The pKa in data set [11] worked out at 6.95. Besides, the “growth inhibition activity against at least one MRSA strain” value in [12] is listed as “sub-micromolar”.
